Columns and labels:
FLT3 = biological target: T1, FLT3 (Homo sapiens, UniProt P36888); assay: Cell-free kinase assay, single dose (Reaction Biology, ADP-Glo); format: biochemical; details: inhibitor 500 nM; 100 μM ATP; average of duplicate
T1 construct: purchased Invitrogen PV3182
T1 sequence (P36888 564-993 limits assumed): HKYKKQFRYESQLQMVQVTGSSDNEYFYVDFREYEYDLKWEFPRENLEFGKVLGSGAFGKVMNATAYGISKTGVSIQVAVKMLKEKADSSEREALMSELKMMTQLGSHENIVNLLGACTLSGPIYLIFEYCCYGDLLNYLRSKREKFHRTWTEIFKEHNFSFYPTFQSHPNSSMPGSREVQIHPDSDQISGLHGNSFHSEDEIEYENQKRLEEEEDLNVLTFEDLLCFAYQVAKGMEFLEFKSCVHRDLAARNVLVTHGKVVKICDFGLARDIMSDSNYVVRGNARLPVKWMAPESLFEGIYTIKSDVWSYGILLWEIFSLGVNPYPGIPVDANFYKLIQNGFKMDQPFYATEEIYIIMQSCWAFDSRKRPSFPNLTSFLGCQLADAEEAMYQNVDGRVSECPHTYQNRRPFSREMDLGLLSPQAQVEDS
Method: Cell-free kinase activity assays were performed at Reaction Biology Corporation. […] DMSO was used as control. […] Experiments were performed in duplicates. The concentrations of kinases and substrates used in the assays are indicated on Table S1. Kinase activity was quantified using the ADP-Glo™ Kinase Assay System (Promega, Madison, WI) following the manufacturer's recommendations.

Src = biological target: T2, Src (Homo sapiens, UniProt P12931); assay: Cell-free kinase assay (Reaction Biology, ADP-Glo); format: biochemical
T2 construct: purchased Invitrogen PR4336E
T2 sequence (P12931 whole entry): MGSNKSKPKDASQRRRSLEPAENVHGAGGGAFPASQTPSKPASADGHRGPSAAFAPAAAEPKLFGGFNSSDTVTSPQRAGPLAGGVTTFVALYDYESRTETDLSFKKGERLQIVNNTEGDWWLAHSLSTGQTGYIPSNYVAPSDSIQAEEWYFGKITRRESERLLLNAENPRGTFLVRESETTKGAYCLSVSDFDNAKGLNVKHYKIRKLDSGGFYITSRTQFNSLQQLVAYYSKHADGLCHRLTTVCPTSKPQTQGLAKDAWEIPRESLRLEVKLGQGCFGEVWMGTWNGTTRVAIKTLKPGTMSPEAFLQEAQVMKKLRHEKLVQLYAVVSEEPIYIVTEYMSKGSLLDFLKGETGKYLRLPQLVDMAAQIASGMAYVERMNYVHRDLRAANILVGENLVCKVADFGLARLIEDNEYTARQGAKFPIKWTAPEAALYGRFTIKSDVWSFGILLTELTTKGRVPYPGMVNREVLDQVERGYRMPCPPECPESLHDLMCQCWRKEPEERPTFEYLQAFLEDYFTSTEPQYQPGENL
Method: (§1) Cell-free kinase activity assays were performed at Reaction Biology Corporation. Briefly, kinases were incubated with substrates, 100 μM ATP and a 3-fold serial dilution of compounds starting at 1 μM. DMSO was used as control. […] Experiments were performed in duplicates. The concentrations of kinases and substrates used in the assays are indicated on Table S1. Kinase activity was quantified using the ADP-Glo™ Kinase Assay System (Promega, Madison, WI) following the manufacturer's recommendations.

MV4–11-luc cells = assay: In vivo efficacy, orthotopic human AML model
Method: The in vivo efficacy of compounds was assessed in an orthotopic human AML model in NSG (NOD scid gamma, NOD-scid IL2Rg^null) mice that were bred at University of Maryland Baltimore (mating pairs acquired from Jackson Laboratories; Maine). […]. Three days later, engraftment was assessed by imaging on a Xenogen IVIS-2 Imaging System (Alameda) after an intraperitoneal (IP) injection of 150 mg/kg luciferin. Mice were sorted into four or five groups (n = 5) so that mean intensity (i.e., disease burden) was equal. Dosing started on day of sorting. Compounds were dissolved in 85% PBS (pH 7.4) buffer containing 10% DMSO and 5% Cremophore. The vehicle (buffer without compounds) was used as control. Mice were injected 3 to 5 days per week via IP injection. Mice were weighed on day of dosing and imaged once per week. […]. All mice were housed in a 12-h light/dark cycle with access to food and water ad libitum. Studies were performed with Institutional Animal Care and Use Committee (UMB and Purdue University) approval.
[…]. Female mice were dosed daily for 5 days via intraperitoneal injection and then monitored for an additional week for weight loss, a sign of toxicity in mice. […] To evaluate the anti-leukemic efficacy in vivo, six-week-old female NSG or NRG mice were injected intravenously with FLT3-ITD expressing acute myeloid leukemia cells (MV4–11), expressing luciferase. […] Dosing (i.p) with the compounds was then started. The mice were dosed with 25 mg/kg of the compounds three times a week (MWF). […] […].

[1] = test system: MOLM-14 (ITD, D835Y) cells; assay: Antiproliferative activity (CellTitre-Blue, 72 h); format: cell-based, human; details: 72 h incubation, triplicates; listed as 20 (HSN459); read-out: IC50 (mean ±SD, nM) MOLM-14 (ITD, D835Y)
Method: (§2) Cells were seeded into 96-well tissue culture-treated plates at 2.0 × 10^4 cells/mL for up to 24 h. DMSO stock solutions of compounds were serially diluted first in DMSO and subsequently into RPMI before being added to the cell cultures in triplicates, with 10 μM being the highest tested concentration. The plates were incubated for 72 h as above. The CellTitre-Blue assay (Promega, Madison WI) was then added to the cultures and incubated a further 4 h before the fluorescence measured following the manufacturers recommendations. The fluorescence data from compounds were normalized to that DMSO and the resulting data fitted to a non-linear regression equation to obtain IC50 using GraphPad Prism 5.0 Software (La Jolla, CA, USA).

MV4–11 cells = assay: Antiproliferative activity (CellTitre-Blue, 72 h); format: cell-based, human; details: Homo sapiens, MV4-11, 72 h, 72 h incubation, triplicates; read-out: IC50 (mean ±SD, nM) MV4–11
Method: as §2

MOLM-14 cells = assay: Antiproliferative activity (CellTitre-Blue, 72 h); format: cell-based, human; details: Homo sapiens, MOLM-14; 72 h incubation, triplicates; read-out: IC50 (mean ±SD, nM) MOLM-14
Method: as §2

[2] = test system: MOLM-14 (ITD, F691 L) cells; assay: Antiproliferative activity (CellTitre-Blue, 72 h); format: cell-based, human; details: 72 h incubation, triplicates; listed as 20 (HSN459); read-out: IC50 (mean ±SD, nM) MOLM-14 (ITD, F691 L)
Method: as §2

FLT3-ITD = FLT3-ITD (Homo sapiens, UniProt P36888, ITD); assay: Cell-free kinase assay, dose-response (Reaction Biology, ADP-Glo); format: biochemical; details: FLT3-ITD 100 nM; ATP 100 μM; read-out: IC50 against FLT3-ITD
Method: as §1

Q: For `Cc1ncc(C(=O)Nc2ccc(CN3CCN(C)CC3)c(C(F)(F)F)c2)cc1C#Cc1cnc(N)c2ncccc12` [Compound 20], which inhibition at 0.5 µM (FLT3) is on record?
A: 97%

Q: And the IC50 (Src; Src 0.6 nM, ATP 100 μM, read-out: IC50 against Src)?
A: 12.2 nM

Q: And the inhibition at 0.5 µM (Src; inhibitor 500 nM, 100 μM ATP, average of duplicate)?
A: 100%

Q: And the “body weight in efficacy study” value (MV4–11-luc cells; 25 mg/Kg i.p. three times a week, after one week)?
A: lost weight

Q: And the “reduction in leukemia burden” value (MV4–11-luc cells; 25 mg/kg i.p. three times a week (MWF), NSG or NRG mice)?
A: > 99%

Q: And the “tolerability in efficacy study” value (MV4–11-luc cells; dose reduced to 10 mg/kg)?
A: tolerable

Q: What about the IC50 [1] of the same compound?
A: 4 ± 0.02 nM

Q: And the IC50 (MV4–11 cells)?
A: 0.3 ± 0.004 nM

Q: What about the IC50 (MOLM-14 cells) of the same compound?
A: 0.2 ± 0.002 nM

Q: What about the IC50 [2] of the same compound?
A: 0.9 ± 0.004 nM

Q: And the IC50 (FLT3-ITD)?
A: 4.8 nM

— PMC6413339 (EBioMedicine, 2019)
